Results on 26 compounds are retold here after patent publication US20240101544A1, “INHIBITORS OF QPCTL AND QPCT” (priority 2022, published 2024).

The target in one assay is QPCTL (Homo sapiens (Human), UniProt Q9NXS2). Nature of the assay: QPCTL Enzymatic Activity Assay (coupled-enzyme fluorescent assay, H-Gln-AMC substrate). The note with it: recombinant truncated human QPCTL 10-12 nM, 10 μM H-Gln-AMC; read-out: QPCTL Inhibition IC50. It counts as biochemical. On the procedure: Protein expression was induced when the bacterial culture OD600 was approximately 0.7 using 1 mM IPTG and the cells incubated at 20° C. for approximately 16 hours. The QPCTL was purified using nickel column purification, digested by TEV, followed by a second nickel column purification. The protein was further purified by size-exclusion chromatography using a Superdex™ 75 column. The final protein was concentrated using ultrafiltration tubes at a molecular weight cutoff of 10 kilodaltons and stored frozen in protein buffer (25 mM Tris pH 8.3, 150 mM NaCl).
QPCTL activity was measured in a coupled-enzyme assay using the QPCTL substrate, glutamine-7-amido-4-methylcoumarin (H-Gln-AMC, Bachem), which is converted to pyroglutamyl-AMC by QPCTL. Pyroglutamyl-AMC is then converted to the fluorescent molecule, AMC, by incubation with the human enzyme pyroglutamyl peptidase-1. […] Final concentrations of DMSO and test compounds were 2% and 30-100 μM, respectively. Following the incubation, H-Gln-AMC substrate was diluted in assay buffer and added to each well for a final concentration of 10 μM. The reaction was incubated for 60 min at 37° C., before stopping it by boiling at 100° C. for 5 minutes and cooling the plate at 4° C. for 3 minutes. […] Following incubation, the fluorescence was measured with a plate reader using excitation at 380 nm and emission at 460 nm. […] Concentration-response-curves and IC50 values (Table 17) were generated using curve fit software.

The next assay has as its target QPCT (rhQPCT) (Homo sapiens (Human), UniProt Q16769). Nature of the assay: QPCT Enzymatic Activity Assay (coupled-enzyme fluorescent assay, H-Gln-AMC substrate). As to conditions: rhQPCT 10-12 nM, 10 μM H-Gln-AMC; read-out: QPCT Inhibition IC50. Type of assay: biochemical. The method, then: QPCT activity was measured in a coupled-enzyme assay using the QPCT substrate, glutamine-7-amido-4-methylcoumarin (H-Gln-AMC, Bachem), which is converted to pyroglutamyl-AMC by QPCT. Pyroglutamyl-AMC is then converted to the fluorescent molecule, AMC, by incubation with the human enzyme pyroglutamyl peptidase-1 (PGPEP-1). […] Following the incubation, H-Gln-AMC substrate was diluted in assay buffer and added to each well for a final concentration of 10 μM. The reaction was incubated for 60 min at 37° C., before stopping it by boiling at 100° C. for 5 minutes and cooling the plate at 4° C. for 3 minutes. […] Following incubation, the fluorescence was measured with a plate reader using excitation at 380 nm and emission at 460 nm. […] Concentration-response-curves and IC50 values (Table 17) were generated using Collaborative Drug Discovery software.

What is called IC50 is the concentration that gives 50% inhibition.

QPCT (rhQPCT), sequence (Q16769 29-361): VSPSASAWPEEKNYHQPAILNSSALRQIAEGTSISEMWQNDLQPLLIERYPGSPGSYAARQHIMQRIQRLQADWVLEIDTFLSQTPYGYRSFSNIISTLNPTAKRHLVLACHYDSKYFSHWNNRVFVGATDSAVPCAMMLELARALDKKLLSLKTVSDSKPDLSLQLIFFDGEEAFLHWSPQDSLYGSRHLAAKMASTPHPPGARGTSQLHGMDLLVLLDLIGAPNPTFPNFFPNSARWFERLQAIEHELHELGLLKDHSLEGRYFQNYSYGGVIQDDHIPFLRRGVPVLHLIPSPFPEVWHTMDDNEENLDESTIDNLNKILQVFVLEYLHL
QPCTL, sequence (Q9NXS2 53-382): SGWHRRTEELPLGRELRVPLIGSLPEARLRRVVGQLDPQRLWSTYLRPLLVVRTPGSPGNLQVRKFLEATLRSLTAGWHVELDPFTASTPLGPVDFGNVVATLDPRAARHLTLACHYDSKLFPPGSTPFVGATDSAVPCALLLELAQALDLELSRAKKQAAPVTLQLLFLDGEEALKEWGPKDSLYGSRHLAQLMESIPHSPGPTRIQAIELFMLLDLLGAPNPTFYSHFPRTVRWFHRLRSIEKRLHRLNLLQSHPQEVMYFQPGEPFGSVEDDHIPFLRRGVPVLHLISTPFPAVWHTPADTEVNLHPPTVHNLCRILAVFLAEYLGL

As to `Cn1ncc(-c2cccc(C#N)c2N2CCC(c3nncn3C)CC2)n1` [Example 99, 3-(2-methyl-2H-1,2,3-triazol-4-yl)-2-(4-(4-methyl-4H-1,2,4-triazol-3-yl)piperidin-1-yl)benzonitrile], the IC50 at QPCTL is 100 to 1000 nM; on QPCT (rhQPCT) it was less than 100 nM.
`Cn1cnnc1C1CCN(c2c(C#N)cccc2-c2cccc(B(O)O)c2)CC1` [Example 112, (3′-cyano-2′-(4-(4-methyl-4H-1,2,4-triazol-3-yl)piperidin-1-yl)-[1,1′-biphenyl]-3-yl)boronic acid]: the IC50 on QPCTL and on QPCT (rhQPCT) was less than 100 nM throughout.
In the case of `Cn1cnnc1C1[C@H]2CN(c3c(C#N)cccc3-c3ccc(F)nc3)C[C@@H]12` (stereo partly drawn) [Example 75, 3-(6-fluoropyridin-3-yl)-2-((1R,5S)-6-(4-methyl-4H-1,2,4-triazol-3-yl)-3-azabicyclo[3.1.0]hexan-3-yl)benzonitrile], the IC50 on QPCTL and at QPCT (rhQPCT) was 100 to 1000 nM each time.
As to `COc1ccncc1-c1cccc(C#N)c1N1CCC(n2ccnc2)CC1` [Example 13, 2-[4-(1H-imidazol-1-yl)piperidin-1-yl]-3-(4-methoxypyridin-3-yl)benzonitrile], the IC50 was in the range of 1000 to 10000 nM on QPCTL and 100 to 1000 nM on QPCT (rhQPCT).
Turning to `Cn1cnnc1C1CCN(c2c(C#N)cccc2-c2cnccn2)CC1` [Example 5, 2-[4-(4-methyl-4H-1,2,4-triazol-3-yl)piperidin-1-yl]-3-(pyrazin-2-yl)benzonitrile], the IC50 on QPCTL and at QPCT (rhQPCT) was 100 to 1000 nM throughout.
On to `Cn1cnnc1C1CCN(c2c(C#N)cccc2-c2ccc(Cl)nc2)CC1` [Example 40, 3-(6-chloropyridin-3-yl)-2-[4-(4-methyl-4H-1,2,4-triazol-3-yl)piperidin-1-yl]benzonitrile], for which the figures for the 50% inhibitory concentration (IC50) on QPCTL and at QPCT (rhQPCT) were less than 100 nM and 100 to 1000 nM, respectively.
The corresponding values for `COc1cnc(-c2ccc(F)nc2)c(N2CCC(c3nncn3C)CC2)c1C#N` [Example 137, 6′-fluoro-5-methoxy-3-(4-(4-methyl-4H-1,2,4-triazol-3-yl)piperidin-1-yl)-[2,3′-bipyridine]-4-carbonitrile] are 1000 to 10000 nM and 100 to 1000 nM.
With `Cn1cnnc1C1CCN(c2c(C#N)cccc2-c2cnnn2C)CC1` [Example 104, 3-(1-methyl-1H-1,2,3-triazol-5-yl)-2-(4-(4-methyl-4H-1,2,4-triazol-3-yl)piperidin-1-yl)benzonitrile], the IC50 on QPCTL and at QPCT (rhQPCT) was 100 to 1000 nM each time.
With `Cn1cnnc1N1CCN(c2c(C#N)ccc(F)c2-c2ccc(F)nc2)CC1` [Example 127, 4-fluoro-3-(6-fluoropyridin-3-yl)-2-(4-(4-methyl-4H-1,2,4-triazol-3-yl)piperazin-1-yl)benzonitrile], the IC50 on QPCTL and on QPCT (rhQPCT) was less than 100 nM throughout.
On to `Cn1cnnc1C1CCN(c2c(C#N)cccc2-c2ccc(C(F)(F)F)nc2)CC1` [Example 29, 2-[4-(4-methyl-4H-1,2,4-triazol-3-yl)piperidin-1-yl]-3-[6-(trifluoromethyl)pyridin-3-yl]benzonitrile], for which the half-inhibitory concentration (IC50) on QPCTL and at QPCT (rhQPCT) was 100 to 1000 nM in each case.
With `Cn1cnnc1C1CCN(c2c(C#N)cccc2-c2ccc(O)nc2)CC1` [Example 116, 3-(6-hydroxypyridin-3-yl)-2-(4-(4-methyl-4H-1,2,4-triazol-3-yl)piperidin-1-yl)benzonitrile], the IC50 on QPCTL and at QPCT (rhQPCT) was less than 100 nM each time.
Turning to `Cn1cnnc1N1CCN(c2c(C#N)ccnc2-c2ccc(F)nc2)CC1` [Example 136, 6′-fluoro-3-(4-(4-methyl-4H-1,2,4-triazol-3-yl)piperazin-1-yl)-[2,3′-bipyridine]-4-carbonitrile], the IC50 at QPCTL and on QPCT (rhQPCT) was less than 100 nM each time.
As for `Cn1cnnc1C1CCN(c2c(C#N)cccc2-c2ccc3c(c2)B(O)OC3)CC1` [Example 121, 3-(1-hydroxy-1,3-dihydrobenzo[c][1,2]oxaborol-6-yl)-2-(4-(4-methyl-4H-1,2,4-triazol-3-yl)piperidin-1-yl)benzonitrile], the IC50 on QPCTL and on QPCT (rhQPCT) was 100 to 1000 nM in each case.
Consider `Cc1cc(-c2ccc(-c3cn[nH]c3)c(C#N)c2N2CCC(c3nncn3C)CC2)cnn1` [Example 74, 2-(4-(4-methyl-4H-1,2,4-triazol-3-yl)piperidin-1-yl)-3-(6-methylpyridazin-4-yl)-6-(1H-pyrazol-4-yl)benzonitrile], for which the 50% inhibitory concentration (IC50) on QPCTL and at QPCT (rhQPCT) was less than 100 nM in each case.
In the case of `Cn1cnnc1C1CCN(c2c(C#N)c(C3CC3)cc(F)c2-c2ccc(F)nc2)CC1` [Example 135, 6-cyclopropyl-4-fluoro-3-(6-fluoropyridin-3-yl)-2-(4-(4-methyl-4H-1,2,4-triazol-3-yl)piperidin-1-yl)benzonitrile], the values for the IC50 at QPCTL and at QPCT (rhQPCT) were 100 to 1000 nM and less than 100 nM, respectively.
As for `Cc1ncn(-c2ccc(-c3ccc(F)nc3)c(N3CCC(c4nncn4C)CC3)c2C#N)n1` [Example 50, 3-(6-fluoropyridin-3-yl)-6-(3-methyl-1H-1,2,4-triazol-1-yl)-2-(4-(4-methyl-4H-1,2,4-triazol-3-yl)piperidin-1-yl)benzonitrile], the IC50 at QPCTL and on QPCT (rhQPCT) was less than 100 nM each time.
On to `Cc1cc(-c2ccc(-c3ccn(C)n3)c(C#N)c2N2CCC(c3nncn3C)CC2)cnn1` [Example 61, 6-(1-methyl-1H-pyrazol-3-yl)-2-(4-(4-methyl-4H-1,2,4-triazol-3-yl)piperidin-1-yl)-3-(6-methylpyridazin-4-yl)benzonitrile], for which the half-inhibitory concentration (IC50) at QPCTL and at QPCT (rhQPCT) was less than 100 nM each time.
As for `Cc1cc(-c2c(F)ccc(C#N)c2N2CCC(c3nncn3C)CC2)cnc1F` [Example 53, 4-fluoro-3-(6-fluoro-5-methylpyridin-3-yl)-2-(4-(4-methyl-4H-1,2,4-triazol-3-yl)piperidin-1-yl)benzonitrile], the IC50 at QPCTL and on QPCT (rhQPCT) was less than 100 nM in each case.
Take `Cn1cnnc1C1CCN(c2c(C#N)cccc2-c2cnnc(O)c2)CC1` [Example 52, 3-(6-hydroxypyridazin-4-yl)-2-(4-(4-methyl-4H-1,2,4-triazol-3-yl)piperidin-1-yl)benzonitrile]: the IC50 on QPCTL and on QPCT (rhQPCT) was less than 100 nM each time.
As to `N#Cc1cccc(-c2ccc(F)nc2)c1N1CCC(c2nncs2)CC1` [Example 72, 2-(4-(1,3,4-thiadiazol-2-yl)piperidin-1-yl)-3-(6-fluoropyridin-3-yl)benzonitrile], the IC50 on QPCTL and at QPCT (rhQPCT) was 100 to 1000 nM throughout.
For the compound `Cn1cnnc1C1CCN(c2c(C#N)cccc2-c2cncc(Br)c2)CC1` [Example 114, 3-(5-bromopyridin-3-yl)-2-(4-(4-methyl-4H-1,2,4-triazol-3-yl)piperidin-1-yl)benzonitrile], the IC50 on QPCTL and on QPCT (rhQPCT) was less than 100 nM throughout.
For the compound `[2H]C([2H])([2H])n1cnnc1C1CCN(c2c(-c3ccc(F)nc3)ccc(Cl)c2C#N)CC1` [Example 56, 6-chloro-3-(6-fluoropyridin-3-yl)-2-(4-(4-(methyl-d3)-4H-1,2,4-triazol-3-yl)piperidin-1-yl)benzonitrile], the IC50 at QPCTL and on QPCT (rhQPCT) was less than 100 nM throughout.
In the case of `Cn1ccc(-c2ccc(-c3cncc(B(O)O)c3)c(N3CCC(c4nncn4C)CC3)c2C#N)n1` [Example 126, (5-(3-cyano-4-(1-methyl-1H-pyrazol-3-yl)-2-(4-(4-methyl-4H-1,2,4-triazol-3-yl)piperidin-1-yl)phenyl)pyridin-3-yl)boronic acid], the IC50 at QPCTL and on QPCT (rhQPCT) was less than 100 nM each time.
Take `COc1ccncc1-c1cccc(C#N)c1N1CCC(c2cncn2C)CC1` [Example 31, 3-(4-methoxypyridin-3-yl)-2-[4-(1-methyl-1H-imidazol-5-yl)piperidin-1-yl]benzonitrile]: the IC50 at QPCTL and at QPCT (rhQPCT) was less than 100 nM throughout.
In the case of `Cn1cc(-c2cnc(-c3ccc(F)nc3)c(N3CCC(c4nncn4C)CC3)c2C#N)cn1` [Example 139, 6′-fluoro-5-(1-methyl-1H-pyrazol-4-yl)-3-(4-(4-methyl-4H-1,2,4-triazol-3-yl)piperidin-1-yl)-[2,3′-bipyridine]-4-carbonitrile], the IC50 is more than 10000 nM on QPCTL and 100 to 1000 nM on QPCT (rhQPCT).
`CN(C)CCOc1ccc(-c2ccnnc2)c(N2CCC(c3nncn3C)CC2)c1C#N` [Example 58, 6-(2-(dimethylamino)ethoxy)-2-(4-(4-methyl-4H-1,2,4-triazol-3-yl)piperidin-1-yl)-3-(pyridazin-4-yl)benzonitrile]: the IC50 at QPCTL and on QPCT (rhQPCT) was less than 100 nM in each case.
